# PubChem BioAssay (NCI)
#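 48-hour exposure; five concentrations; linearly interpolated endpoints. The concentration for 50% growth inhibition is given as GI50. The concentration for full growth arrest is given as TGI.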
# How the values were obtained:
# Experiment in all cases: NCI-60 cell line screen, 48 h
# A549 NSCLC = system: A549 NSCLC
# SN12C renal = system: SN12C renal
# HT29 colon = system: HT29 colon
# HCT-116 colon = system: HCT-116 colon
# COLO 205 colon = system: COLO 205 colon
# HOP-92 NSCLC = system: HOP-92 NSCLC
# ACHN renal = system: ACHN renal
# BT-549 breast = system: BT-549 breast
# MCF7 breast = system: MCF7 breast
# DU-145 prostate = system: DU-145 prostate
Structure (SMILES),TGI (A549 NSCLC) [µM],TGI (SN12C renal) [µM],TGI (HT29 colon) [µM],TGI (HCT-116 colon) [µM],TGI (COLO 205 colon) [µM],TGI (HOP-92 NSCLC) [µM],TGI (ACHN renal) [µM],GI50 (BT-549 breast) [µM],TGI (BT-549 breast) [µM],GI50 (A549 NSCLC) [µM],GI50 (SN12C renal) [µM],GI50 (HT29 colon) [µM],GI50 (HCT-116 colon) [µM],GI50 (MCF7 breast) [µM],TGI (MCF7 breast) [µM],GI50 (COLO 205 colon) [µM],GI50 (HOP-92 NSCLC) [µM],GI50 (ACHN renal) [µM],GI50 (DU-145 prostate) [µM],TGI (DU-145 prostate) [µM]
CC(=O)NC1C(OCc2ccccc2)OC(CO)C(O)C1OC(C)C(=O)N[C@@H](C)C(=O)N[C@H](CCC(=O)OCCNc1c2ccccc2nc2cccc([N+](=O)[O-])c12)C(N)=O (stereo partly drawn),0.0173,0.0313,0.00443,0.00243,0.0026,0.00616,0.0071,,,,,,,,,,,,,
Cn1c(=O)c(NC(=O)C(Cl)(Cl)Cl)nc2ccccc21,> 100,> 100,> 100,> 100,> 100,,,,,,,,,,,,,,,
Nc1c(O)cc(N=C2C(=O)C=CC=C2C(=O)O)c(O)c1C(=O)O,> 100,> 100,> 100,> 100,> 100,> 100,> 100,,,,,,,,,,,,,
CCOc1ccc2c(c1)[n+]([O-])c(-c1ccc(Br)cc1)c(N)[n+]2[O-],> 100,> 100,> 100,,52.4,,> 100,,,,,,,,,,,,,
C[N+](C)(C)CC1CCC/C1=N/O (stereo not drawn),> 100,> 100,> 100,46,38.7,> 100,> 100,,,,,,,,,,,,,
C#CC[N+](C)(CC#C)CC#C,> 100,> 100,> 100,,> 100,> 100,> 100,,,,,,,,,,,,,
COc1cc(-c2cc(-c3ccc(Nc4ccnc5cc(Cl)ccc45)cc3)nc(N3CCOCC3)n2)cc(OC)c1OC,3.47,3.81,4.61,3.34,9.36,4.81,5.02,2.57,7.19,1.76,1.93,1.97,1.36,0.755,3.26,2.79,1.85,2.34,,
COC(=O)C1=C(c2ccc(OC)c(OC)c2)OC(c2cc(OC)c(OC)c(OC)c2)C1 (stereo not drawn),> 100,> 100,> 100,,,65.2,> 100,,,,,,,,,,,,,
Brc1ccc2[nH]cc(-c3nc(-c4c[nH]c5ncccc45)cs3)c2c1,16.3,19.4,,12.2,5.77,6.89,12.9,6.07,18.9,3.2,4.1,,3.09,2.57,13.7,1.13,1.98,2.66,4.14,15.7
COC1=C(C)C(=O)c2c(c(CCCl)c3n2CCC3O)C1=O (stereo not drawn),,14.2,0.67,> 100,0.72,24.7,6.83,0.247,1.09,,0.694,0.197,1.53,0.125,1.9,0.203,6.21,0.327,0.039,1.9
CN(COC(=O)c1ccccc1)c1nc(N(C)COC(=O)c2ccccc2)nc(N(C)COC(=O)c2ccccc2)n1,> 100,> 100,> 100,> 100,> 100,63.1,78.7,,,,,,,,> 100,,,,,> 100
COC(=O)/C(=N/Nc1cccc(Cl)c1)C(C(=O)C(=O)Nc1cccc(Cl)c1C)c1nc2ccccc2nc1C (stereo not drawn),> 100,> 100,> 100,> 100,> 100,,> 100,,,,,,,,,,,,,
CN(C)c1nnnn1-c1c(N)n(C)c(=O)n(C)c1=O,> 100,> 100,> 100,> 100,> 100,> 100,> 100,,,,,,,,,,,,,
Cc1ccc(-c2c3c(nn2-c2ccc(S(N)(=O)=O)cc2)-c2ccccc2C3)cc1,70.1,36.9,95.8,24.2,94.9,30.6,35.8,,,23.4,16.9,24.2,11,30.3,> 100,23,13.9,19.8,15.6,33.1
Cc1noc2c1C(=O)CCC2,,> 100,> 100,> 100,> 100,> 100,> 100,,,,,,,,,,,,,
COC(=O)C(=CNC(N)=O)C(=O)OC,> 100,> 100,> 100,> 100,> 100,> 100,> 100,,,,,,,,> 100,,,,,> 100
Clc1ccc(-c2csc(Nc3cccc(-c4csc(-c5ccccc5)n4)c3)n2)cc1,43.4,16.8,,18.5,23.1,> 50,42.1,15.8,31.4,15.2,7.6,,8.97,10.3,> 50,10,12.5,14.6,9.15,17.5
CS(=O)(=O)NNS(=O)(=O)c1ccccc1,> 100,> 100,> 100,> 100,> 100,,> 100,,,,,,,,,,,,,
COC(=O)CCC1CCc2c(OC)ccc(OC)c2C1=O (stereo not drawn),> 100,> 100,> 100,,> 100,,> 100,,,,,,,,,,,,,
O=[N+]([O-])c1ccc(Oc2nc(Nc3ccc(O[C@H]4CO[C@H]5[C@@H]4OC[C@@H]5O)c(Cl)c3)ncc2F)c(Cl)c1,6.15,6.78,11.7,,3.78,2.65,4.55,1.29,3.36,1.86,1.34,2.43,,1.66,4.16,1.42,0.807,0.79,0.917,5.45
CN=C(NC(=S)N(C)C)N(C)C,> 100,> 100,> 100,> 100,,> 100,> 100,,,,,,,,,,,,,
O=C(O)C1CCCCC1c1c2ccc(=O)c(O)c-2oc2c(O)c(O)ccc12 (stereo not drawn),48.6,39.3,> 100,28.4,> 100,> 100,60.1,,,,,,,,37.5,,,,,> 100
